Data published in publication PMC6934188, “Epidermal hepcidin is required for neutrophil response to bacterial infection” (The Journal of Clinical Investigation, 2019).
Where no end group is shown, it is not given here.

Columns and labels:
[1] = system: murine primary keratinocytes; assay: Cytokines in culture supernatant of murine primary keratinocytes (V-PLEX Proinflammatory Panel1 / CXCL1 ELISA); assay type: cell-based, mouse
[2] = system: human HaCat keratinocyte cell line; assay: IL-8 ELISA on culture supernatant of HaCat; assay type: cell-based; settings: HaCat stimulated with 3.6 μM hepcidin; n ≥ 3 per group
[3] = system: human 3D organotypic skin model; assay: IL-8 ELISA on culture supernatant of human 3D organotypic skin model; assay type: cell-based; settings: human 3D skin equivalent model stimulated with 3.6 μM hepcidin; n ≥ 3 per group
[4] = system: GAS; assay: Therapeutic treatment in GAS-induced necrotizing fasciitis mouse model; assay type: in vivo, mouse (C57BL6)
[5] = system: SpyCEP; settings: incubated overnight with purified SpyCEP or PBS; mass spectrometry read-out; CXCL1 fragments of 5.9 kDa and 1.3 kDa
[6] = target: SpeB (Streptococcus pyogenes, UniProt P0C0J0)
[7] = system: GAS; assay: Rescue experiment: CXCL1 injection into GAS-infected Hamp1Δker mice; settings: 1 µg/mouse rCXCL1 s.c. with infection and intralesionally at 24, 48 and 72 h, n ≥ 4 per group
Protocol: (G) Bacterial count in the skin of Hamp1^lox/lox and Hamp1Δ^ker mice injected daily with CXCL1 or PBS; n ≥ 4 per group.
were performed in a C57BL6 background, using 8-12 week old male littermates.
Mouse model of GAS infection
A well-established model of necrotizing soft tissue infection was adapted for this study (3, 4).
In brief, Hamp1lox/lox and Hamp1Δker mice male littermates were subcutaneously injected with
107 c.f.u. of M1T1 5448 GAS. Weight loss and lesion size of mice were estimated daily. After
96 hours, mice were sacrificed and skin necrotic ulcers, spleen, and blood (via retro orbital
bleeding) were recovered and homogenized in sterile PBS. Serial dilutions of tissue
homogenate were spread on THA plates to enumerate bacterial colony forming units (c.f.u.).
For the rescue experiment, Hamp1lox/lox and Hamp1Δker littermates were subcutaneously
infected with 107 c.f.u. of GAS with PBS or 1 µg/mouse of recombinant CXCL1 (rCXCL1;
R&D system, 1395-KC-025/CF). Mice were intralesionally injected again at 24, 48 and 72 h
with PBS or 1 µg of rCXCL1.

With Ferric Ammonium Citrate [iron] the “CXCL1 production (ELISA)” value ([1]; murine primary keratinocytes stimulated 3 hours with 500 μM ferric ammonium citrate (FAC), n = 3 per group) was “stimulated CXCL1 production”.

In the case of “human hepcidin (DTHFPICIFCCGCCHRSKCGMCCKT; ends and bridges not checked; cysteine pairing not given here; UniProt P81172 60-84, looked up) [human hepcidin used to stimulate HaCat and human 3D organotypic skin model]”, the “production of IL-8” value [2] is reported as “induce the production of IL-8” and the “production of IL-8” value [3] is reported as “induce the production of IL-8”.

For “hepcidin (DTNFPICIFCCKCCNNSQCGICCKT; ends and bridges not checked; cysteine pairing not given here; UniProt Q9EQ21 59-83, looked up)”, the “CXCL1 in culture supernatant” value ([1]; murine primary keratinocytes incubated with 0.36 μM and 3.6 μM synthetic hepcidin for 1 or 3 hours, V-PLEX cytoplex, n = 3 per group) was “dose-dependent increase”, the “CXCL1 induction measured by ELISA” value ([1]; murine primary keratinocytes, 3.6 uM hepcidin, 1 or 3 hours, N=3 per group (Supplemental Figure 5)) was “confirmed by ELISA” and the “bacterial dissemination in CXCL1–/– mice” value ([4]; CXCL1–/– mice, hepcidin treatment (Supplemental Figure 8)) was “did not prevent bacterial dissemination”. For the same molecule, the weight variation ([4]; WT mice, s.c. 1 μg hepcidin 24 h after GAS infection, then 500 ng at 48 and 72 h, 4 days, n = 9) was “recovered their initial weight”, the “mice with absolutely no bacterial dissemination (bacterial count in spleen)” value ([4]; WT mice, s.c. 1 μg hepcidin 24 h after GAS infection, then 500 ng at 48 and 72 h, spleen c.f.u. at 96 hours, n = 9, all control mice disseminated) was 7 of the 9 and the “signs of systemic disease” value ([4]; WT mice, s.c. 1 μg hepcidin 24 h after GAS infection, then 500 ng at 48 and 72 h, vs PBS (weight loss, rough hair coat, hunched posture), n = 9) was “did not present any signs of systemic disease”. The neutrophil recruitment ([4]; WT mice, s.c. 1 μg hepcidin at inoculation site 24 h after GAS infection, then 500 ng at 48 and 72 h, n = 6 per group) was “increase in neutrophil recruitment”, the “cleavage by SpyCEP” value [5] was “not cleaved” and the “cleavage by SpeB” value [6] was “not cleaved”.

B1: CXCL1 (protein, UniProt P12850 25-96, looked up)
Growth-regulated alpha protein: APIANELRCQCLQTMAGIHLKNIQSLKVLPSGPHCTQTEVIATLKNGREACLDPEAPLVQKIVQKMLKGVPK
B1 was tested, and the “cleavage by SpyCEP” value [5] was “cleaved” and the “bacterial count in the skin lesion” value [7] was “significantly decreased the number of bacteria”.
